Experimental data from PMC12454493, “Insight on novel sulfamoylphenyl pyrazole derivatives as anticancer carbonic anhydrase inhibitors” (Molecular Diversity, 2024).

Tests used:
HCT-15 = test: NCI-60 one-dose SRB screen (Colon Cancer); assay type: cell-based; conditions: Homo sapiens, single dose 10 µM, 48 h, read-out: Growth inhibition percent (GI %)
Experimental: (§1) The National Cancer Institute (NCI) Developmental Therapeutic Program (www.dtp.nci.nih.gov) selected the 20 novel synthesized compounds 4a-e, 5a-e, 6a-c, 9a-e, 10 and 11 to test for their anticancer activity at a single dose of 10 µM using SRB assay. […] Supplementary Data S3; Table S1 presents the detailed screening results of the most promising compounds. The preliminary screening’s detailed results for the remaining compounds are elucidated in the (Supplementary Data S3; Table S2).
(§2) The guidelines of the Drug Evaluation Branch’s protocol at the NCI in Bethesda served as the basis for the in vitro anticancer screening assays. at one dose 10 µM against a panel of 60 cancer cell lines. The human tumor cell lines used belonged to nine panels: leukemia, melanoma, lung, colon, CNS, ovarian, renal, prostate and breast cancers using the sulforhodamine B (SRB) assay in a 48 h drug exposure protocol.

HT29 = test: NCI-60 one-dose SRB screen (Colon Cancer); assay type: cell-based; conditions: Homo sapiens, HT-29, single dose 10 µM, 48 h, read-out: Growth inhibition percent (GI %)
Experimental: as §1, §2

KM12 = test: NCI-60 one-dose SRB screen (Colon Cancer); assay type: cell-based; conditions: Homo sapiens, single dose 10 µM, 48 h, read-out: Growth inhibition percent (GI %)
Experimental: as §1, §2

COLO 205 = test: NCI-60 one-dose SRB screen (Colon Cancer); assay type: cell-based; conditions: Homo sapiens, single dose 10 µM, 48 h, read-out: Growth inhibition percent (GI %)
Experimental: as §1, §2

SW-620 = test: NCI-60 one-dose SRB screen (Colon Cancer); assay type: cell-based; conditions: Homo sapiens, single dose 10 µM, 48 h, read-out: Growth inhibition percent (GI %)
Experimental: as §1, §2

HCT-116 = test: NCI-60 one-dose SRB screen (Colon Cancer); assay type: cell-based; conditions: Homo sapiens, single dose 10 µM, 48 h, read-out: Growth inhibition percent (GI %)
Experimental: as §1, §2

HCC-2998 = test: NCI-60 one-dose SRB screen (Colon Cancer); assay type: cell-based; conditions: Homo sapiens, single dose 10 µM, 48 h, read-out: Growth inhibition percent (GI %)
Experimental: as §1, §2

hCA XII = hCA XII (Homo sapiens, UniProt O43570); test: CA inhibitory activity, spectrophotometric p-NPA assay; assay type: biochemical; conditions: p-NPA substrate, pH 7.5, 25 °C, triplicate; read-out: IC50 (µM) ± SD hCA XII
Sequence of hCA XII (O43570 25-354): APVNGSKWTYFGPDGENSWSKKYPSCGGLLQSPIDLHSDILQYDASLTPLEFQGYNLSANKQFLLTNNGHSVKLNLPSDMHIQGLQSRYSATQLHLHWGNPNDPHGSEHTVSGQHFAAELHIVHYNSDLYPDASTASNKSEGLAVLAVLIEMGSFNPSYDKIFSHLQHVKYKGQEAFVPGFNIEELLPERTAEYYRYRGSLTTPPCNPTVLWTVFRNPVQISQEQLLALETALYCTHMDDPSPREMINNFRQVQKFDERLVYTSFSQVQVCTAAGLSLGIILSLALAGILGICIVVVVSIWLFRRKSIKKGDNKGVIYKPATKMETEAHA
Experimental: The software used to calculate CA IC50 along with statistical analysis of the results is GraphPad Prism 9.00. Results were estimated by using one-way ANOVA and the Bonferroni’s multiple comparisons posthoc test was performed (P < 0.05) [46]
Carbonic anhydrase inhibitory activity:
The spectrophotometric assay was conducted in HEPES-Tris buffer, NaCl of pH 7.5 (20mM) at 25◦C. Each inhibitory well-consisted of 50 μL of assay buffer solution, 20 μL of hCA enzyme solution (20 ng/μL in Assay Buffer), and 50 μL of test compound in HPLC grade DMSO (maintain 10% of the final concentration). The mixture solution was
Substrate p-nitrophenyl acetate (p-NPA) (0.7mM) was prepared in HPLC grade methanol and the reaction was started by adding 20 μL to a well in a 96-well-plate. The amount of product formed was measured for 30 min continuously at 1 min intervals at 400 nm in a 96-well-plate using xMARK microplate spectrophotometer, Bio-Rad (USA). The activity of the controlled compound was taken as 100%. All experiments were carried out in triplicates of each used concentration, and results are represented as a

A549/ATCC = test: NCI-60 one-dose SRB screen (Non-Small Cell Lung Cancer); assay type: cell-based; conditions: Homo sapiens, single dose 10 µM, 48 h, read-out: Growth inhibition percent (GI %)
Experimental: as §1, §2

HOP-92 = test: as above; assay type: cell-based; conditions: Homo sapiens, single dose 10 µM, 48 h, read-out: Growth inhibition percent (GI %)
Experimental: as §1, §2

NCI-H23 = test: as above; assay type: cell-based; conditions: Homo sapiens, single dose 10 µM, 48 h, read-out: Growth inhibition percent (GI %)
Experimental: as §1, §2

HOP-62 = test: as above; assay type: cell-based; conditions: Homo sapiens, single dose 10 µM, 48 h, read-out: Growth inhibition percent (GI %)
Experimental: as §1, §2

NCI-H322M = test: as above; assay type: cell-based; conditions: Homo sapiens, single dose 10 µM, 48 h, read-out: Growth inhibition percent (GI %)
Experimental: as §1, §2

EKVX = test: as above; assay type: cell-based; conditions: Homo sapiens, single dose 10 µM, 48 h, read-out: Growth inhibition percent (GI %)
Experimental: as §1, §2

NCI-H226 = test: as above; assay type: cell-based; conditions: Homo sapiens, single dose 10 µM, 48 h, read-out: Growth inhibition percent (GI %)
Experimental: as §1, §2

NCI-H522 = test: as above; assay type: cell-based; conditions: Homo sapiens, single dose 10 µM, 48 h, read-out: Growth inhibition percent (GI %)
Experimental: as §1, §2

NCI-H460 = test: as above; assay type: cell-based; conditions: Homo sapiens, single dose 10 µM, 48 h, read-out: Growth inhibition percent (GI %)
Experimental: as §1, §2

RXF 393 = test: NCI-60 one-dose SRB screen (Renal Cancer); assay type: cell-based; conditions: Homo sapiens, single dose 10 µM, 48 h, read-out: Growth inhibition percent (GI %)
Experimental: as §1, §2

786-0 = test: NCI-60 one-dose SRB screen (Renal Cancer); assay type: cell-based; conditions: Homo sapiens, single dose 10 µM, 48 h, read-out: Growth inhibition percent (GI %)
Experimental: as §1, §2

TK-10 = test: NCI-60 one-dose SRB screen (Renal Cancer); assay type: cell-based; conditions: Homo sapiens, single dose 10 µM, 48 h, read-out: Growth inhibition percent (GI %)
Experimental: as §1, §2

ACHN = test: NCI-60 one-dose SRB screen (Renal Cancer); assay type: cell-based; conditions: Homo sapiens, single dose 10 µM, 48 h, read-out: Growth inhibition percent (GI %)
Experimental: as §1, §2

UO-31 = test: NCI-60 one-dose SRB screen (Renal Cancer); assay type: cell-based; conditions: Homo sapiens, single dose 10 µM, 48 h, read-out: Growth inhibition percent (GI %)
Experimental: as §1, §2

A498 = test: NCI-60 one-dose SRB screen (Renal Cancer); assay type: cell-based; conditions: Homo sapiens, single dose 10 µM, 48 h, read-out: Growth inhibition percent (GI %)
Experimental: as §1, §2

CAKI-1 = test: NCI-60 one-dose SRB screen (Renal Cancer); assay type: cell-based; conditions: Homo sapiens, single dose 10 µM, 48 h, read-out: Growth inhibition percent (GI %)
Experimental: as §1, §2

U251 = test: NCI-60 one-dose SRB screen (CNS Cancer); assay type: cell-based; conditions: Homo sapiens, U-251, single dose 10 µM, 48 h, read-out: Growth inhibition percent (GI %)
Experimental: as §1, §2

SF-295 = test: NCI-60 one-dose SRB screen (CNS Cancer); assay type: cell-based; conditions: Homo sapiens, single dose 10 µM, 48 h, read-out: Growth inhibition percent (GI %)
Experimental: as §1, §2

SF-268 = test: NCI-60 one-dose SRB screen (CNS Cancer); assay type: cell-based; conditions: Homo sapiens, single dose 10 µM, 48 h, read-out: Growth inhibition percent (GI %)
Experimental: as §1, §2

SNB-19 = test: NCI-60 one-dose SRB screen (CNS Cancer); assay type: cell-based; conditions: Homo sapiens, single dose 10 µM, 48 h, read-out: Growth inhibition percent (GI %)
Experimental: as §1, §2

SNB-75 = test: NCI-60 one-dose SRB screen (CNS Cancer); assay type: cell-based; conditions: Homo sapiens, single dose 10 µM, 48 h, read-out: Growth inhibition percent (GI %)
Experimental: as §1, §2

SF-539 = test: NCI-60 one-dose SRB screen (CNS Cancer); assay type: cell-based; conditions: Homo sapiens, single dose 10 µM, 48 h, read-out: Growth inhibition percent (GI %)
Experimental: as §1, §2

Question: Which results are given for `Cc1ccc(-c2nn(-c3ccc(S(N)(=O)=O)cc3)cc2C(=O)OCC(=O)Nc2ccc(S(N)(=O)=O)cc2)cc1` [Compound 4b, 2-Oxo-2-[(4-sulfamoylphenyl)amino] ethyl 1-(4-sulfamoylphenyl)-3-(p-tolyl)-1H-pyrazole-4-carboxylate]?
Answer: inhibition at 10 µM (HCT-15): < 5%; inhibition at 10 µM (HT29): 11.6%; inhibition at 10 µM (KM12): < 5%; inhibition at 10 µM (COLO 205): < 5%; inhibition at 10 µM (SW-620): < 5%; inhibition at 10 µM (HCT-116): < 5%; inhibition at 10 µM (HCC-2998): < 5%; IC50 (hCA XII): 0.17 ± 0.006 µM; inhibition at 10 µM (A549/ATCC): 7.63%; inhibition at 10 µM (HOP-92): < 5%; inhibition at 10 µM (NCI-H23): < 5%; inhibition at 10 µM (HOP-62): < 5%; inhibition at 10 µM (NCI-H322M): 6.16%; inhibition at 10 µM (EKVX): < 5%; inhibition at 10 µM (NCI-H226): < 5%; inhibition at 10 µM (NCI-H522): 25.6%; inhibition at 10 µM (NCI-H460): < 5%; inhibition at 10 µM (RXF 393): < 5%; inhibition at 10 µM (786-0): 9.87%; inhibition at 10 µM (TK-10): < 5%; inhibition at 10 µM (ACHN): < 5%; inhibition at 10 µM (UO-31): 14.5%; inhibition at 10 µM (A498): < 5%; inhibition at 10 µM (CAKI-1): 15.2%; inhibition at 10 µM (U251): < 5%; inhibition at 10 µM (SF-295): < 5%; inhibition at 10 µM (SF-268): 10.3%; inhibition at 10 µM (SNB-19): < 5%; inhibition at 10 µM (SNB-75): < 5%; inhibition at 10 µM (SF-539): 20.3%
